The record followed here is patent US20200031811A1, “SUBSTITUTED MONO- AND POLYAZANAPHTHALENE DERIVATIVES AND THEIR USE” (Basilea Pharmaceutica International AG, priority 2015, published 2020).

The target in assay [1] is T1, MNK1 (Homo sapiens, UniProt Q9BUB5).
T1 construct: purchased Life Technologies or Carna Biosciences PV6023 or 02-145; host or cells: baculovirus infected insect cells
The experiment in a line: MNK inhibition assay (Z-Lyte kinase assay, Ser/Thr 7 peptide). Conditions: for IC50: recombinant GST-MNK1, 3 hours at 31° C. Format: biochemical. The essentials:
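Recombinant GST-MNK1 from baculovirus-infected insect cells, Z-Lyte Ser/Thr 7 peptide, enzyme set for ~30% phosphorylation in buffer-only wells; 3 hours at 31° C. Compounds at 50–10000 nM (potent ones down to 0.5 nM), at least duplicate. IC50 from % substrate phosphorylation versus buffer-only wells, fluorescence read-out.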

For assay [2], the system named is human pancreatic cancer cell line MiaPaCa2 (ATCC CRL-1420). The experiment in a line: Cell growth assay (CellTiterGlo, 72 hours). Format: cell-based. The settings on record: for IC50: MIA PaCa-2, MiaPaCa2 cells, 72 hours, read-out: IC50 MiaPaCa; for inhibition at 100 µM: MIA PaCa-2, at 100 μM, read-out: Inhibition of MiaPaCa growth at indicated concentration. The essentials: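 MiaPaCa2 cells (10^3/well) seeded in supplemented DMEM overnight, then exposed in quadruplicate to compound at 100 down to 0.1 μM for 72 h at 37° C. Growth read by CellTiterGlo luminescence, medium-only background subtracted, normalised to untreated cells; IC50 = concentration reducing growth to 50%.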

T1 sequence (Q9BUB5 whole entry): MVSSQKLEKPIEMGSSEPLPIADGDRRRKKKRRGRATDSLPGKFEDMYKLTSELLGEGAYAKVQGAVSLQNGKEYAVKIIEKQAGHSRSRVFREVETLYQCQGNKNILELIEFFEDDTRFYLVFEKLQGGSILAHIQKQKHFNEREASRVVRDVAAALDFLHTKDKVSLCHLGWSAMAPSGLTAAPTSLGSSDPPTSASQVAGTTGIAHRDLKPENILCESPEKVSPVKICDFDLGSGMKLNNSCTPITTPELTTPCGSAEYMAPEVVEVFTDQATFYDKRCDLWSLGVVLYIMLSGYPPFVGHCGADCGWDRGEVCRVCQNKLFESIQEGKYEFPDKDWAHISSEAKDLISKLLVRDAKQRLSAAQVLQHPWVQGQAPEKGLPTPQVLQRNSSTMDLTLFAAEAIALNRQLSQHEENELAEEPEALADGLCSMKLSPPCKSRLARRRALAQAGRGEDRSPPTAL

For orientation: IC50 means the concentration that inhibits the measured activity by half. Consider `NC1CCN(Cc2ccc3cncc(-c4ccc5cnccc5c4)c3c2)CC1` [Example 193], for which the IC50 stood at 1050 nM in assay [1] and 11500 nM in assay [2].

Turning to `NC1CCN(Cc2ccc3cncc(-c4ccoc4)c3c2)CC1` [Example 179], the IC50 in assay [1] came to 276 nM; in assay [2], 4970 nM.

Regarding `N[C@@H]1CCN(Cc2ccc3cncc(-c4cc5ccccc5o4)c3c2)C[C@@H]1O` [Example 269, (3S,4R/3R,4S)-4-Amino-1-[[4-(benzofuran-2-yl)-6-isoquinolyl]methyl]piperidin-3-ol], the IC50 came out at 141 nM in assay [1] and 9030 nM in assay [2].

For the compound `NC1CCN(Cc2ccc3nncc(-c4ccc(O)cc4)c3c2)CC1` [Example 86], the IC50 in assay [1] amounted to 174 nM. Also, in assay [2], the inhibition at 100 µM was determined as 50%.

As to `Nc1ncc2ccc(CN3CCC(N)CC3)cc2c1-c1ccc(O)cc1` [Example 163], the IC50 in assay [1] came out at 142 nM; in assay [2], 13800 nM.

In the case of `Nc1ncc(-c2cc3ccccc3o2)c2cc(N[C@H]3CC[C@H](N)CC3)cc(Cl)c12` [Example 313], the values for the IC50 in assay [1] and in assay [2] were 282 nM and 2060 nM, respectively.

With `NC1CCCC(NCc2ccc3cncc(-c4ccc(O)cc4)c3c2)C1` (stereo not shown) [Example 38], the IC50 in assay [1] came out at 351 nM; in assay [2], 25000 nM.

In the case of `Oc1ccc(-c2cncc3ccc(CNC4CCNCC4)cc23)cc1` [Example 40], the IC50 in assay [1] came out at 263 nM. The inhibition at 100 µM in assay [2] came to 48%.

For the compound `COc1cc2cncc(-c3ccccc3)c2cc1CN1CCC(N)CC1` [Example 266, 1-[(7-Methoxy-4-phenyl-6-isoquinolyl)methyl]piperidin-4-amine], the IC50 in assay [1] is 59 nM; in assay [2] it was 14400 nM.

Take `COc1cc(N[C@H]2CC[C@H](N)CC2)cc2c(-c3ccccc3)cncc12` [Example 315]: the IC50 in assay [1] turned out to be 87 nM; in assay [2], 2550 nM.

With `Cc1ccc(-c2cncc3ccc(CN4CCC(N)CC4)cc23)o1` [Example 167, 1-[[4-(5-methyl-2-furyl)-6-isoquinolyl]methyl]piperidin-4-amine], the IC50 is 1040 nM in assay [1] and 800 nM in assay [2].

Take `Nc1cc[n+](Cc2ccc3cncc(-c4ccc(Cl)cc4)c3c2)cc1` [Example 123]: the IC50 came to 132 nM in assay [1] and 7920 nM in assay [2].

Turning to `Nc1ncc2ccc(CN3CCC(N)CC3)cc2c1-c1ccccc1` [Example 162, 6-[(4-Amino-1-piperidyl)methyl]-4-phenyl-isoquinolin-3-amine], the inhibition at 1 µM in assay [1] (at 1 μM, read-out: Inhibition of MNK1 activity at indicated concentration) was 54%. Besides, in assay [2], the IC50 amounted to 9880 nM.

Take `FC(F)(F)c1cnccc1NCc1ccc2cncc(-c3cc4ccccc4o3)c2c1` [Example 77]: the values for the IC50 in assay [1] and in assay [2] were 1130 nM and 10000 nM, respectively.

As for `COc1cc(CN2CCC(N)CC2)cc2c(-c3ccccc3)cncc12` [Example 246], the results for the IC50 in assay [1] and in assay [2] were 432 nM and 5730 nM, respectively.

Take `NCCCOCc1ccc2c(N)ncc(-c3ccc(Cl)cc3)c2c1` [Example 110]: the IC50 amounted to 395 nM in assay [1] and 11300 nM in assay [2].

Turning to `NCc1ccccc1NCc1ccc2cncc(-c3cc4ccccc4o3)c2c1` [Example 51, 2-(Aminomethyl)-N-[[4-(benzofuran-2-yl)-6-isoquinolyl]methyl]aniline], the IC50 in assay [1] came to 4220 nM; in assay [2], 6340 nM.

Regarding `Nc1ncc(-c2cc3ccccc3o2)c2cc(O[C@H]3CC[C@H](N)CC3)cc(Cl)c12` [Example 318, trans-6-(4-Aminocyclohexoxy)-4-(benzofuran-2-yl)-8-chloro-isoquinolin-1-amine], the figures for the IC50 in assay [1] and in assay [2] were 296 nM and 3800 nM, respectively.

Consider `Nc1cc[n+](Cc2ccc3cncc(-c4ccc(NC(=O)Nc5ccccc5)cc4)c3c2)cc1` [Example 124], for which the results for the half-inhibitory concentration (IC50) in assay [1] and in assay [2] were 2080 nM and 45800 nM, respectively.

For the compound `NCCNc1ccc2cncc(-c3cc4ccccc4o3)c2c1` [Example 100, N′-[4-(Benzofuran-2-yl)-6-isoquinolyl]ethane-1,2-diamine], the inhibition at 10 µM in assay [1] (at 10 μM, read-out: Inhibition of MNK1 activity at indicated concentration) was determined as 51%. Besides, the IC50 in assay [2] was 4010 nM.

Consider `N[C@H]1CC[C@H](Nc2cc(Cl)c3cncc(-c4cc5ccccc5o4)c3c2)CC1` [Example 142, N4-[4-(Benzofuran-2-yl)-8-chloro-6-isoquinolyl]cyclohexane-1,4-diamine], for which the IC50 amounted to 180 nM in assay [1] and 3790 nM in assay [2].

Take `NC1CCN(Cc2ccc3cncc(-c4ccc(Cl)cc4Cl)c3c2)CC1` [Example 197]: the IC50 in assay [1] is 1390 nM; in assay [2] it was 9860 nM.

For the compound `Nc1cccc(-c2cncc3ccc(CN4CCC(N)CC4)cc23)c1` [Example 3], the IC50 in assay [1] is 847 nM; in assay [2] it was 20600 nM.

Take `NC1CCN(Cc2ccc3cncc(-c4ccc(NC(=O)Nc5cccc(Cl)c5)cc4)c3c2)CC1` [Example 114]: the IC50 in assay [1] worked out at 1210 nM; in assay [2], 3830 nM.

In the case of `Nc1cc(NCc2ccc3cncc(-c4cc5ccccc5o4)c3c2)ccn1` [Example 130, N4-[[4-(Benzofuran-2-yl)-6-isoquinolyl]methyl]pyridine-2,4-diamine], the IC50 in assay [1] came out at 21 nM; in assay [2] it was 580 nM.

For `N[C@H]1CC[C@H](Nc2ccc3cncc(-c4cc5ccccc5o4)c3c2)CC1` [Example 148, 4-(Benzofuran-2-yl)-N-(4-(trans)aminocyclohexyl)isoquinolin-6-amine], the IC50 in assay [1] came to 58 nM; in assay [2], 1740 nM.

Take `c1ccc2oc(-c3cncc4ccc(CNc5ccnc6[nH]ccc56)cc34)cc2c1` [Example 272, N-[[4-(Benzofuran-2-yl)-6-isoquinolyl]methyl]-1H-pyrrolo[2,3-b]pyridin-4-amine]: the IC50 in assay [1] was 5.4 nM; in assay [2], 7250 nM.

For the compound `c1ccc2oc(-c3cncc4ccc(Nc5ccncc5)cc34)cc2c1` [Example 139, 4-(Benzofuran-2-yl)-N-(4-pyridyl)isoquinolin-6-amine], the 50% inhibitory concentration (IC50) in assay [1] came to 903 nM; in assay [2], 10400 nM.

`N[C@@H]1CCN(Cc2ccc3cncc(-c4cc5ccccc5o4)c3c2)C[C@H]1O` [Example 268, (3R,4R/3S,4S)-4-Amino-1-[[4-(benzofuran-2-yl)-6-isoquinolyl]methyl]piperidin-3-ol]: the IC50 worked out at 53 nM in assay [1] and 5330 nM in assay [2].

As for `COc1ccc(-c2cncc3ccc(CN4CCC(N)CC4)cc23)cn1` [Example 201], the results for the IC50 in assay [1] and in assay [2] were 803 nM and 25200 nM, respectively.

Consider `COc1cc2cncc(-c3cc4ccccc4o3)c2cc1N[C@H]1CC[C@H](N)CC1` [Example 141, N4-[4-(Benzofuran-2-yl)-7-methoxy-6-isoquinolyl]cyclohexane-1,4-diamine], for which the IC50 in assay [1] stood at 187 nM; in assay [2], 2260 nM.

With `NC1CCN(Cc2ccc3cncc(-c4cnc5ccccc5c4)c3c2)CC1` [Example 173], the 50% inhibitory concentration (IC50) was determined as 958 nM in assay [1] and 9870 nM in assay [2].

For `N[C@H]1CC[C@H](Nc2ccc3cncc(-c4ccccc4)c3c2)CC1` [Example 229, trans-N4-(4-phenyl-6-isoquinolyl)cyclohexane-1,4-diamine], the values for the IC50 in assay [1] and in assay [2] were 225 nM and 4500 nM, respectively.

Turning to `NC1CCN(Cc2ccc3cncc(-c4ccc(NC(=O)NC5CC5)cc4)c3c2)CC1` [Example 118], in assay [1], the IC50 was found to be 422 nM. For the same compound, the inhibition at 100 µM in assay [2] came out at 48%.

`NC1CCN(Cc2cc(Cl)c3cncc(-c4ccco4)c3c2)CC1` [Example 239]: the figures for the IC50 in assay [1] and in assay [2] were 100 nM and 3200 nM, respectively.
